In patent publication US11332438B2, “Creatine prodrugs, compositions and methods of use thereof” (Ultragenyx Pharmaceutical Inc., priority 2017, dated 2022):
Like-named read-outs stand apart in the source and are kept apart here. Blank lines part the entries; values can stand above or below the compound they belong to.

How the values were obtained:
[1] = rcm bond, DCM, 50.0 °C
[2] = rcm bond, Grubbs II, 50.0 °C
[3] = target: T1, recombinant human FAAH enzyme (rFAAH) (Homo sapiens, UniProt O00519); test: Direct prodrug cleavage with recombinant human FAAH enzyme (rFAAH): d3-Cr release and d3-Crn cyclization; format: biochemical; conditions: 200 μM prodrug, 3 h; result in words
T1 sequence (O00519 1-579): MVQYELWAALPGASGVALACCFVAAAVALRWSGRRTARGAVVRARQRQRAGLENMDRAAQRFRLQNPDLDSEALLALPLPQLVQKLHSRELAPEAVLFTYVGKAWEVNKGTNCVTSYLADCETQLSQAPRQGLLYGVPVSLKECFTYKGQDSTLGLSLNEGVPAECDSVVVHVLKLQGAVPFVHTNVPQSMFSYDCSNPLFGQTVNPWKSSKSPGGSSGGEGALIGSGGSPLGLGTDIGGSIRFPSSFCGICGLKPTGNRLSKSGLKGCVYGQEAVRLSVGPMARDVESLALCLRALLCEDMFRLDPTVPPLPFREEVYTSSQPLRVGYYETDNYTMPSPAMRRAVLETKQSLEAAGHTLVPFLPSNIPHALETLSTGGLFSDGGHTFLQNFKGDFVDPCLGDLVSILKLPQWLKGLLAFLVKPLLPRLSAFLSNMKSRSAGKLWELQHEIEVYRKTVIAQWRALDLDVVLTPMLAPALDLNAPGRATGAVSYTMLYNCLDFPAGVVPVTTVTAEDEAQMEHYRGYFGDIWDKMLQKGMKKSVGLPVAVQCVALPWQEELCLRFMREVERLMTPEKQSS
Procedure: (§1) For assessment of the ability of prodrugs to release creatine, and to release creatine preferentially to unwanted cyclization to creatinine, d3-labeled (deuterium labeled methyl group) prodrugs are incubated with brain homogenates (e.g., mouse, human) specially prepared to preserve FAAH activity or with rFAAH for direct cleavage study. The use of d3-labelled prodrugs is essential in order to distinguish prodrug-derived creatine (d3-creatine) from high concentrations of endogenous (non-labeled) creatine. […] Prodrugs are tested at final concentrations of 20 μM and 200 μM. Approximately 3-4 mg of homogenate is used for each reaction. Co-factor (NADPH) is included at a final concentration of 1 mM. FAAH activity is confirmed by conversion of 7-amino-4-methyl Coumarin-Arachidonamide to 7-amino-4-methyl Coumarin by fluorescent assay. Negative controls include incubations without brain homogenate/rFAAH (but with NADPH) or 65° C. heat inactivated brain homogenate/rFAAH to assess non-enzymatic prodrug cleavage under the conditions of the assay and FAAH inhibitor […] at the concentration of 1 μM. Prodrug incubations are prepared by addition of 8 μL of prodrug stock solution (500 or 5000 μM in DMSO or DMSO/methanol) to assay buffered, followed by addition of brain homogenate/rFAAH. […] The samples are centrifuged at 15890×g for 10 minutes at 4° C., followed by transfer of the supernatants for storage at −20° C. pending LC-MS/MS analysis. Sample supernatants are analyzed by LC-MS/MS for determination of d3-prodrug, d3-creatine and d3-creatinine levels.
(§2) Deuterated creatine prodrugs were tested in 3 different in vitro assays to assess d3-creatine (d3-Cr) release and cyclization to form d3-creatinine (d3-Crn). These assays were 1) direct cleavage with recombinant human FAAH enzyme (rFAAH), 2) cleavage in mouse brain homogenates (MBH), and 3) human brain homogenates (HBH).
(§3) Creatine prodrug cleavage efficiency was determined by percentage of net d3-Cr release in μM (positive reaction subtracted from negative control of no brain homogenate/rFAAH or inactivated brain homogenate/rFAAH) over nominal input concentration of 200 μM prodrug at 3 h. Propensity for creatinine cyclization was determined by percentage of d3-Crn generated in μM in positive reaction over nominal input concentration of 200 μM prodrug at 3 h.

[4] = Chemical stability in simulated gastric fluid (SGF) without pepsin; format: physicochemical; conditions: Table 2A, 50 μM prodrug
Method in brief: (§4)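 Incubations used 50 μM compound at 37 °C in phosphate buffered saline, fasted simulated intestinal fluid without pancreatin, or fasted simulated gastric fluid without pepsin.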

[5] = Prodrug cleavage in human brain homogenates (HBH): d3-Cr release and d3-Crn cyclization; format: in vitro ADME; conditions: 200 μM prodrug, 3 h, % of nominal input
Procedure: as §1, §2, §3

[6] = Chemical stability in phosphate buffered saline (PBS); format: physicochemical; conditions: Table 2A, 50 μM prodrug
Method in brief: as §4

[7] = system: ARPE-19 cells; test: Creatine prodrug uptake and d3-creatine release in ARPE-19 cells (Table 4A); format: cell-based, human; conditions: 50 μM, 6 h, cytosol fraction, corrected for total protein
Procedure: At the end of the incubation, supernatant will be collected from each well to assess prodrug recovery. Cells are then washed 3× with PBS. Plates, prodrugs in supernatant, prodrugs in serum-free medium are stored at −80° C. until harvest (within 5 days). On the day of extraction, 130 uL of lysis buffer (10 mM Tris pH 7.4) with EDTA-free protease inhibitors is added to each well and cells are removed using a cell scraper. Lysates are further homogenized using a handheld pestle and then centrifuged at 16,000 g, […], for 10 minutes to collect cytosol fraction. Pellets will be stored at −80° C. until further analysis. A 4× volume of stop solution (80% ACN/20% water) will be added to the cytosol fraction, supernatant and medium. Samples will be centrifuged at 15,890 g (13,000 rpm) at 4° C. for 10 mins. Supernatant will be collected and stored at −80° C. within 5 days prior to LC-MS/MS analysis. Dosing solutions for each prodrug (10 μM) will be assayed to verify concentration. Cells alone with vehicle will serve as controls to assess background signal for LC-MS/MS. Two independent runs of experiment will be conducted.
Nine fatty acid amide creatine prodrugs were tested in human ARPE-19 cells to assess prodrug uptake and d3-Cr release inside the cells. 50 μM of prodrug was incubated in culture medium with the cells and the cells were harvested at 6 h. Quantitation of prodrugs, d3-Cr (d3-creatine) and d3-Cm (d3-creatinine) in the cytosol fraction was corrected for total protein concentration.

[8] = Plasma stability, human plasma; format: in vitro ADME; conditions: Table 2A, 37 °C, read-out: Plasma Stability Human t1/2
Method in brief: (§5)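 Test article, 1 µM final (from 10% DMSO/water), incubated at 37 °C in plasma adjusted to pH 7.4 if needed; samples at 0, 2, 5, 15 and 30 min quenched with ice-cold 80% acetonitrile. Remaining compound by LC-MS/MS; half-life in minutes calculated.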

[9] = Plasma stability, mouse plasma; format: in vitro ADME; conditions: Table 2A, 37 °C, read-out: Plasma Stability Mouse t1/2
Method in brief: as §5

[10] = Chemical stability in simulated intestinal fluid (SIF) without pancreatin; format: physicochemical; conditions: Table 2A, 50 μM prodrug
Procedure: Chemical stability of creatine prodrugs in phosphate buffered saline (PBS), simulated intestinal fluid (SIF) without pancreatin, simulated gastric fluid (SGF) without pepsin were determined by LC-UV, LC-CAD, LC-UV-CAD or LC-MS/MS as appropriate. Creatine prodrugs of the present disclosure (50 μM) were incubated at 37° C. according to described protocols and prodrug levels were compared between t=0, t=15, t=60, and t=120 mins by peak area ratio to determine the percentage remained at t=120 mins (2 h).
Protocol for PBS, SIF and SGF stability for screening:
Prodrugs (50 μM) were incubated in PBS, FaSSIF (Biorelevant) or FaSSGF (Biorelevant) at 37° C.

Compound: [2H]C([2H])([2H])N1CC(=O)OCCCC/C=C\CCCCCCCC(=O)N/C1=N/C(=O)OC(C)(C)C
ring closure, isolated yield ([1]; from [2H]C([2H])([2H])N(CC(=O)OCCCCC=C)C(=NC(=O)OC(C)(C)C)NC(=O)CCCCCCCC=C, 20-membered ring, Grubbs II): 90%

Compound: [2H]C([2H])([2H])N1CC(=O)OC(CC)/C=C/CCCCCCCC(=O)N/C1=N/C(=O)OC(C)(C)C (centres unmarked)
ring closure, yield of all isomers ([2]; from [2H]C([2H])([2H])N(CC(=O)OC(C=C)CC)/C(=N\C(=O)OC(C)(C)C)NC(=O)CCCCCCCC=C, DCM, 2.82 mM): 86%

Compound: CN1CC(=O)OC(C)(C)CC=CCCCCCCCC(=O)NC1=NC(=O)OCc1ccccc1
ring closure, isolated yield ([1]; from [2H]C([2H])([2H])N(CC(=O)OC(C)(C)CC=C)/C(=N\C(=O)OCc1ccccc1)NC(=O)CCCCCCCC=C, 18-membered ring, Grubbs II (10 mol%), 2.0 mM, 2.0 h): 79%

Compound: [2H]C([2H])([2H])N1CC(=O)OC2(CC/C=C/CCCCCC(=O)NC1=NC(=O)OCc1ccccc1)CCOC2 (centres unmarked)
ring closure, yield of all isomers ([2]; from [2H]C([2H])([2H])N(CC(=O)OC1(CCC=C)CCOC1)C(=NC(=O)OCc1ccccc1)NC(=O)CCCCCC=C, dichloromethane, 1.95 mM): 78%

Compound: [2H]C([2H])([2H])N1CC(=O)OC(C)C=CCCCCCCCC(=O)N/C1=N/C(=O)OC(C)(C)C (centres unmarked)
ring closure, yield of all isomers ([2]; from [2H]C([2H])([2H])N(CC(=O)OC(C)C=C)/C(=N\C(=O)OC(C)(C)C)NC(=O)CCCCCCCC=C, DCM, 2.28 mM): 77%

Compound: [2H]C([2H])([2H])N1CC(=O)OCCCCCCCC/C=C/CCCCCCCC(=O)N/C1=N/C(=O)OCc1ccccc1
ring closure, isolated yield ([1]; from [2H]C([2H])([2H])N(CC(=O)OCCCCCCCCC=C)/C(=N\C(=O)OCc1ccccc1)NC(=O)CCCCCCCC=C, 24-membered ring, Grubbs II (10 mol%), 1.79 mM, 2.0 h): 78%

Compound: CC1CC=CCCCCCCCC(=O)NC(=NC(=O)OC(C)(C)C)N(C)CC(=O)O1 (centres unmarked)
ring closure, isolated yield ([1]; from [2H]C([2H])([2H])N(CC(=O)OC(C)CC=C)C(=NC(=O)OC(C)(C)C)NC(=O)CCCCCCCC=C, 18-membered ring, Grubbs II, 2.0 h, 2 steps): 53%

Compound: (Z)-tert-butyl-((E)-17-ethyl-4-trideuteriomethyl-2,7-dioxo-1-oxa-4,6-diazacycloheptadec-15-en-5-ylidene) carbamate
ring closure, isolated yield ([1]; 17-membered ring, Grubbs II (20 mol%), 2.82 mM): 86%

Compound: [2H]C([2H])([2H])N1CC(=O)OC2(CCC=CCCCCCC(=O)NC1=NC(=O)OCc1ccccc1)CCCC2
ring closure, yield of all isomers ([2]; from [2H]C([2H])([2H])N(CC(=O)OC1(CCC=C)CCCC1)C(=NC(=O)OCc1ccccc1)NC(=O)CCCCCC=C, dichloromethane, 1.95 mM): 84%

Compound: [2H]C([2H])([2H])N1CC(=O)OC(C)(C)CC=CCCCCCCCC(=O)N/C1=N/C(=O)OCc1ccccc1
ring closure, yield of all isomers ([2]; from [2H]C([2H])([2H])N(CC(=O)OC(C)(C)CC=C)/C(=N\C(=O)OCc1ccccc1)NC(=O)CCCCCCCC=C, dichloromethane, 2.0 mM): 79%

Compound: CN1CC(=O)OC(C)(C)CCCC=CCCC(=O)NC1=NC(=O)OCc1ccccc1
ring closure, isolated yield ([1]; from [2H]C([2H])([2H])N(CC(=O)OC(C)(C)CCCC=C)C(=NC(=O)OCc1ccccc1)NC(=O)CCC=C, 15-membered ring, Grubbs II): 50%

Compound: [2H]C([2H])([2H])N(C(N)=NC(=O)OCc1ccccc1)N(CC(=O)O)C(=N)NC(=O)CCCCCC=C
ring closure, isolated yield ([1]; the molecule shown is the open-chain precursor, 17-membered ring, Grubbs II (10 mol%), 2.4 mM): 33%

Prodrug Cleavage rFAAH d3-Crn release (yes/no) [3]: yes
Prodrug Cleavage rFAAH net d3-Cr release (yes/no) [3]: no
Chemical Stability SGF, no enzyme % T0 at 2 hours at 37 °C. [4]: 102%
Prodrug Cleavage Human BH d3-Crn release [5]: 22.0%
Prodrug Cleavage Human BH net d3-Cr release ([5]; negative control subtracted): 0.4%
Chemical Stability PBS % T0 at 2 hours at 37 °C. [6]: 54%
d3-Cr, Cellular Uptake [7]: 0.74 nmol/mg protien
d3-Crn, Cellular Uptake [7]: 1.03 nmol/mg protien
prodrug, Cellular Uptake [7]: BQL
Compound: Cl.[2H]C([2H])([2H])N(CC(=O)OC(C)C)C(=N)NC(=O)CCCCCCC/C=C\CCCCCCCC [Compound 45]

Compound: [2H]C([2H])([2H])N1CC(=O)OC2(CC/C=C/CCCCCC(=O)N/C1=N/C(=O)OCc1ccccc1)CCOC2 (centres unmarked)
ring closure, isolated yield ([1]; from [2H]C([2H])([2H])N(CC(=O)OC1(CCC=C)CCOC1)/C(=N\C(=O)OCc1ccccc1)NC(=O)CCCCCC=C, 17-membered ring, Grubbs II (10 mol%), 1.95 mM, 2.0 h): 78%

Compound: [2H]C([2H])([2H])N1CC(=O)OC2(CCC=CCCCCCC(=O)N/C1=N/C(=O)OCc1ccccc1)CCC2
ring closure, yield of all isomers ([2]; from [2H]C([2H])([2H])N(CC(=O)OC1(CCC=C)CCC1)/C(=N\C(=O)OCc1ccccc1)NC(=O)CCCCCC=C, dichloromethane, 2.4 mM): 33%

Chemical Stability SGF, no enzyme % T0 at 2 hours at 37 °C. [4]: 111%
half-life [8]: < 5 min
half-life [9]: < 5 min
Chemical Stability SIF, no enzyme % T0 at 2 hours at 37 °C. [10]: 45%
Chemical Stability PBS % T0 at 2 hours at 37 °C. [6]: 0%
Compound: [2H]C([2H])([2H])N(CC(=O)OCC)C(=N)NC(=O)CCCCCCCCCCCC [Compound 46]

Compound: [2H]C([2H])([2H])N1CC(=O)OCCCCCCCC/C=C/CCCCCCCC(=O)NC1=NC(=O)OCc1ccccc1
ring closure, yield of all isomers ([2]; from [2H]C([2H])([2H])N(CC(=O)OCCCCCCCCC=C)C(=NC(=O)OCc1ccccc1)NC(=O)CCCCCCCC=C, dichloromethane, 1.79 mM): 78%
